Test results reported in patent US6617314B2, “Injectable formulations of avermectins and milbemycins” (Bayer Aktiengesellschaft, priority 1996, dated 2003).

Assay: solubility of ivermectin in solvents
Format: physicochemical
Text: The solubility of ivermectin in benzyl alcohol is >40% by weight and in castor oil ˜4% by weight.

## 22,23-dihydroavermectin B1 [ivermectin]
Solvent benzyl alcohol
  solubility in benzyl alcohol: > 40 % by weight
Solvent castor oil
  solubility in castor oil: ~4 % by weight
